Biological target: T1, human TLR8 (Homo sapiens, UniProt Q9NR97)
T1 construct: host or cells: HEK293 (HEK-Blue hTLR8)
T1 sequence (Q9NR97 27-1041): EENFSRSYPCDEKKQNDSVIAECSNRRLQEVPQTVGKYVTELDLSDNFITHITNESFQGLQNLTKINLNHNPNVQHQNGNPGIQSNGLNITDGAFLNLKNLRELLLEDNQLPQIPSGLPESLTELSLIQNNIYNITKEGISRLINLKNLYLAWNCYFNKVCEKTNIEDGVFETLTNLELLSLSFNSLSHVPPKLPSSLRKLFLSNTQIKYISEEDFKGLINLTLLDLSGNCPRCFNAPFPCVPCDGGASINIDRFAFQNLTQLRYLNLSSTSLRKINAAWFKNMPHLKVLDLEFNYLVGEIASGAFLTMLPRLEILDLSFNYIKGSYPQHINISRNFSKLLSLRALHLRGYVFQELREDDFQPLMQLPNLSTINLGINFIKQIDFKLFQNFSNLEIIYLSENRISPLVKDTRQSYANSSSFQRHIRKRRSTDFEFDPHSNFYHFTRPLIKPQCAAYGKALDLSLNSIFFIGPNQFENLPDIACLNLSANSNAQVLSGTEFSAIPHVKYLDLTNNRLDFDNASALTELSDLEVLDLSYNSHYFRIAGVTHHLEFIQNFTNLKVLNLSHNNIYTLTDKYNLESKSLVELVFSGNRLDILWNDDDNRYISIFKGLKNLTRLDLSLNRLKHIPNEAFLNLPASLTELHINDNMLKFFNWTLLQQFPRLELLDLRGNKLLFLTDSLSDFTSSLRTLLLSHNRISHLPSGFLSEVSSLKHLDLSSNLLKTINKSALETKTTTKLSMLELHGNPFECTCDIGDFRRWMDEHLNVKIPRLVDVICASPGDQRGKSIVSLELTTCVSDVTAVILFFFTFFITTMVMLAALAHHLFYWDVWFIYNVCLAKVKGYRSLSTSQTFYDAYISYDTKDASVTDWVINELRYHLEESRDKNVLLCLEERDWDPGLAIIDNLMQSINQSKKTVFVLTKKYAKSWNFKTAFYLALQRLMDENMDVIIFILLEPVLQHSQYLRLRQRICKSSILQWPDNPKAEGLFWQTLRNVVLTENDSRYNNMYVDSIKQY
Test: HEK293-Blue-hTLR-8 cells assay
Type: cell-based
Details: HEK293-Blue-hTLR8 cells, R848 stimulation, 20 hrs; read-out: HEK/hTLR8 IC50
From the text: A stable HEK293-Blue-hTLR-8 cell line was purchased from InvivoGen (Cat. #: hkb-htlr8, San Diego, California, USA). These cells were originally designed for studying the stimulation of human TLR8 by monitoring the activation of NF-κB. A SEAP (secreted embryonic alkaline phosphatase) reporter gene was placed under the control of the IFN-β minimal promoter fused to five NF-κB and AP-1-binding sites. The SEAP was induced by activating NF-κB and AP-1 via stimulating HEK-Blue hTLR8 cells with TLR8 ligands. Therefore the reporter expression was declined by TLR8 antagonist under the stimulation of a ligand, such as R848, for incubation of 20 hrs. The cell culture supernatant SEAP reporter activity was determined using QUANTT-BlueTv™ kit (Cat. #: rep-qbl, Invivogen, San Diego, Ca, USA) at a wavelength of 640 nm, a detection medium that turns purple or blue in the presence of alkaline phosphatase.
HEK293-Blue-hTLR8 cells were incubated at a density of 250,000˜450,000 cells/mL in a volume of 170 μL in a 96-well plate in Dulbecco's Modified Eagle's medium (DMEM) containing 4.5 g/L glucose, 50 U/mi penicillin, […] streptomycin, […], 2 mM L-glutamine, 10% (v/v) heat-inactivated fetal bovine serum with addition of 20 μL test compound in a serial dilution in the presence of final DMSO at 1% and 10 μL of 60 μM R848 in above DMEM, perform incubation under 37° C. in a CO2 incubator for 20 hrs. Then 20 μL of the supernatant from each well was incubated with 180 μL Quanti-blue substrate solution at 37° C. for 2 hrs and the absorbance was read at 620-655 nm using a spectrophotometer. The signaling pathway that TLR8 activation leads to downstream NF-κB activation has been widely accepted, and therefore similar reporter assay was modified for evaluating TLR8 antagonist.

Cc1cc(N2CCC(c3ncc(N4CC[C@@H](N)[C@@H](F)C4)cc3C)CC2)c2cnn(C)c2n1 [Example 15, (3S,4R)-1-[6-[1-(1,6-dimethylpyrazolo[3,4-b]pyridin-4-yl)-4-piperidyl]-5-methyl-3-pyridyl]-3-fluoro-piperidin-4-amine]
IC50: 0.047 µM

Cc1cc(N2CC[C@H](c3ccc(N4CCOC[C@@H](N)C4)cn3)[C@@H](C)C2)c2cnn(C)c2n1 [Example 40, (6S)-4-[6-[(3R,4S)-1-(1,6-dimethylpyrazolo[3,4-b]pyridin-4-yl)-3-methyl-4-piperidyl]-3-pyridyl]-1,4-oxazepan-6-amine]
IC50: 0.007 µM

Cc1cc(N2CCNCC2)cnc1C1CCN(c2ccnc3c2cnn3C)CC1 [Example 5, 1-methyl-4-[4-(3-methyl-5-piperazin-1-yl-2-pyridyl)-1-piperidyl]pyrazolo[3,4-b]pyridine]
IC50: 0.064 µM

Cc1cc(N2CCC(c3ccc(N4CCNCC4)nc3C)CC2)c2cnn(C)c2n1 [Example 10, 1,6-dimethyl-4-[4-(2-methyl-6-piperazin-1-yl-3-pyridyl)-1-piperidyl]pyrazolo[3,4-b]pyridine]
IC50: 0.013 µM

Cc1cc(N2CC[C@@H](c3ncc(N4CC5(CNCCO5)C4)cc3C)[C@H](C)C2)c2cnn(C)c2n1 [Example 27, 2-[6-[(3S,4R)-1-(1,6-dimethylpyrazolo[3,4-b]pyridin-4-yl)-3-methyl-4-piperidyl]-5-methyl-3-pyridyl]-5-oxa-2,8-diazaspiro[3.5]nonane]
IC50: 0.007 µM

Cc1cc(N2CCC(c3ncc(N4CCNCC4)cc3C)[C@H](C)C2)c2cnn(C)c2n1 (single isomer, unassigned) [Example 24, 1,6-dimethyl-4-[cis-3-methyl-4-(3-methyl-5-piperazin-1-yl-2-pyridyl)-1-piperidyl]pyrazolo[3,4-b]pyridine]
IC50: 0.005 µM

CO[C@H]1CN(c2ccc([C@H]3CCN(c4cc(C)nc5c4cnn5C)C[C@@H]3C)nc2)CC[C@@H]1N [Example 39, (3S,4S)-1-[6-[(3R,4S)-1-(1,6-dimethylpyrazolo[3,4-b]pyridin-4-yl)-3-methyl-4-piperidyl]-3-pyridyl]-3-methoxy-piperidin-4-amine]
IC50: 0.01 µM

Cc1cc(N2CCC(c3cnc(N4CCNCC4)cc3C)CC2)c2cnn(C)c2n1 [Example 8, 1,6-dimethyl-4-[4-(4-methyl-6-piperazin-1-yl-3-pyridyl)-1-piperidyl]pyrazolo[3,4-b]pyridine]
IC50: 0.008 µM

Cc1cc(N2CC[C@@H](c3ncc(N4CC(C)(N)C4)cc3C)[C@H](C)C2)c2cnn(C)c2n1 [Example 32, 1-[6-[(3S,4R)-1-(1,6-dimethylpyrazolo[3,4-b]pyridin-4-yl)-3-methyl-4-piperidyl]-5-methyl-3-pyridyl]-3-methyl-azetidin-3-amine]
IC50: 0.015 µM

COC[C@H]1CN(c2cnc(C3CCN(c4cc(C)nc5c4cnn5C)CC3)c(C)c2)CCN1 [Example 16, 4-[4-[5-[(3R)-3-(methoxymethyl)piperazin-1-yl]-3-methyl-2-pyridyl]-1-piperidyl]-1,6-dimethyl-pyrazolo[3,4-b]pyridine]
IC50: 0.032 µM

Cc1cc(N2CC[C@H](c3ccc(N4CC[C@@H](N)[C@H](F)C4)cn3)[C@@H](C)C2)c2cnn(C)c2n1 [Example 41, (3R,4R)-1-[6-[(3R,4S)-1-(1,6-dimethylpyrazolo[3,4-b]pyridin-4-yl)-3-methyl-4-piperidyl]-3-pyridyl]-3-fluoro-piperidin-4-amine]
IC50: 0.01 µM

Cc1cc(N2CCC(c3cc(C)c(N4CCNCC4)cn3)CC2)c2cnn(C)c2n1 [Example 9, 1,6-dimethyl-4-[4-(4-methyl-5-piperazin-1-yl-2-pyridyl)-1-piperidyl]pyrazolo[3,4-b]pyridine]
IC50: 0.031 µM

Cc1cc(N2CC[C@@H](c3ncc(N4CC[C@@H](N)[C@H](F)C4)cc3C)[C@H](C)C2)c2cnn(C)c2n1 [Example 31, (3R,4R)-1-[6-[(3S,4R)-1-(1,6-dimethylpyrazolo[3,4-b]pyridin-4-yl)-3-methyl-4-piperidyl]-5-methyl-3-pyridyl]-3-fluoro-piperidin-4-amine]
IC50: 0.009 µM

CO[C@H]1CN(c2cnc(C3CCN(c4cc(C)nc5c4cnn5C)CC3)c(C)c2)CC[C@@H]1N [Example 17, (3S,4S)-1-[6-[1-(1,6-dimethylpyrazolo[3,4-b]pyridin-4-yl)-4-piperidyl]-5-methyl-3-pyridyl]-3-methoxy-piperidin-4-amine]
IC50: 0.039 µM

Cc1cc(N2CCC(c3ncc(N4CCNCC4)cn3)CC2)c2cnn(C)c2n1 [Example 4, 1,6-dimethyl-4-[4-(5-piperazin-1-ylpyrimidin-2-yl)-1-piperidyl]pyrazolo[3,4-b]pyridine]
IC50: 0.059 µM

Cc1cc(N2CCNCC2)ncc1C1CCN(c2ccnc3c2cnn3C)CC1 [Example 6, 1-methyl-4-[4-(4-methyl-6-piperazin-1-yl-3-pyridyl)-1-piperidyl]pyrazolo[3,4-b]pyridine]
IC50: 0.037 µM

COc1cc(N2CCNCC2)cnc1C1CCN(c2cc(C)nc3c2cnn3C)CC1 [Example 14, 4-[4-(3-methoxy-5-piperazin-1-yl-2-pyridyl)-1-piperidyl]-1,6-dimethyl-pyrazolo[3,4-b]pyridine]
IC50: 0.013 µM

CO[C@@H]1CN(c2cnc([C@@H]3CCN(c4cc(C)nc5c4cnn5C)C[C@H]3C)c(C)c2)C[C@H]1N [Example 26, (3R,4R)-1-[6-[(3S,4R)-1-(1,6-dimethylpyrazolo[3,4-b]pyridin-4-yl)-3-methyl-4-piperidyl]-5-methyl-3-pyridyl]-4-methoxy-pyrrolidin-3-amine]
IC50: 0.014 µM

CCc1cc(N2CCNCC2)cnc1C1CCN(c2cc(C)nc3c2cnn3C)CC1 [Example 13, 4-[4-(3-ethyl-5-piperazin-1-yl-2-pyridyl)-1-piperidyl]-1,6-dimethyl-pyrazolo[3,4-b]pyridine]
IC50: 0.044 µM

Cc1cc(N2CCC(c3cnc(N4CCNCC4)cc3C)[C@H](C)C2)c2cnn(C)c2n1 (single isomer, unassigned) [Example 20, 1,6-dimethyl-4-[cis-3-methyl-4-(4-methyl-6-piperazin-1-yl-3-pyridyl)-1-piperidyl]pyrazolo[3,4-b]pyridine]
IC50: 0.006 µM

Cc1cc(N2CCC(c3ncc(N4CCNCC4)nc3C)[C@H](C)C2)c2cnn(C)c2n1 (single isomer, unassigned) [Example 23, 1,6-dimethyl-4-[trans-3-methyl-4-(3-methyl-5-piperazin-1-yl-pyrazin-2-yl)-1-piperidyl]pyrazolo[3,4-b]pyridine]
IC50: 0.007 µM

Cc1cc(N2CC[C@@H](c3ncc(N4C[C@H]5NCCO[C@@H]5C4)cc3C)[C@H](C)C2)c2cnn(C)c2n1 [Example 33, (4aR,7aR)-6-[6-[(3S,4R)-1-(1,6-dimethylpyrazolo[3,4-b]pyridin-4-yl)-3-methyl-4-piperidyl]-5-methyl-3-pyridyl]-3,4,4a,5,7,7a-hexahydro-2H-pyrrolo[3,4-b][1,4]oxazine]
IC50: 0.003 µM

Cc1cc(N2CC[C@H](c3ccc(N4CC(C)(N)C4)cn3)[C@@H](C)C2)c2cnn(C)c2n1 [Example 43, 1-[6-[(3R,4S)-1-(1,6-dimethylpyrazolo[3,4-b]pyridin-4-yl)-3-methyl-4-piperidyl]-3-pyridyl]-3-methyl-azetidin-3-amine]
IC50: 0.006 µM

Cc1cc(N2CCC(c3ccc(N4CCNCC4)cn3)CC2)c2cnn(C)c2n1 [Example 2, 1,6-dimethyl-4-[4-(5-piperazin-1-yl-2-pyridyl)-1-piperidyl]pyrazolo[3,4-b]pyridine]
IC50: 0.021 µM

— patent publication US20240360126A1, “PYRAZOLO[3,4-B]PYRIDINE COMPOUNDS FOR THE TREATMENT OF AUTOIMMUNE DISEASE” (Hoffmann-La Roche Inc., priority 2021, published 2024)
